The source of these data is the OligoGym collection.

HELM strings list units from the 5' end as sugar, base in round brackets, then linkage (d deoxyribose, r ribose, m 2'-O-methyl, p phosphodiester). Strings are as the collection lists them, not checked against the first reports. ss, as = sense and antisense strand; [s4r] = 4'-thioribose; [fl2r] = 2'-fluoro
Also: test system not given here.

The conditions of this data set: siRNA.
“RNA1{r(C)p.r(C)p.r(U)p.r(C)p.r(C)p.r(C)p.r(C)p.r(A)p.r(U)p.r(C)p.r(C)p.r(C)p.r(C)p.r(U)p.r(U)p.r(U)p.r(U)p.r(A)p.r(A)p.r(T)p.r(T)}|RNA2{r(U)p.r(U)p.m(A)p.r(A)p.r(A)p.r(A)p.r(G)p.r(G)p.r(G)p.r(G)p.r(A)p.r(U)p.r(G)p.r(G)p.r(G)p.r(G)p.r(A)p.r(G)p.r(G)p.r(T)p.r(T)}$$$RNA1{StrandType:ss}|RNA2{StrandType:as}$” registered a target mRNA knockdown of 80%. The value for “RNA1{r(C)p.r(C)p.r(U)p.r(C)p.r(G)p.r(G)p.r(A)p.r(G)p.r(A)p.r(G)p.r(U)p.r(U)p.r(C)p.m(U)p.r(A)p.r(C)p.r(U)p.r(C)p.r(U)p.r(T)p.r(T)}|RNA2{r(A)p.r(G)p.r(A)p.r(G)p.m(U)p.r(A)p.r(G)p.r(A)p.r(A)p.r(C)p.r(U)p.r(C)p.r(U)p.r(C)p.r(C)p.r(G)p.r(A)p.r(G)p.r(G)p.r(T)p.r(T)}$$$RNA1{StrandType:ss}|RNA2{StrandType:as}$” was 85%. “RNA1{r(C)p.r(C)p.r(U)p.r(C)p.r(G)p.r(G)p.r(A)p.r(G)p.r(A)p.r(G)p.r(U)p.r(U)p.r(C)p.r(U)p.r(A)p.r(C)p.r(U)p.r(C)p.r(U)p.r(T)p.r(T)}|RNA2{r(A)p.r(G)p.r(A)p.r(G)p.m(U)p.r(A)p.r(G)p.r(A)p.r(A)p.r(C)p.r(U)p.r(C)p.r(U)p.r(C)p.r(C)p.r(G)p.r(A)p.r(G)p.r(G)p.r(T)p.r(T)}$$$RNA1{StrandType:ss}|RNA2{StrandType:as}$”: the target mRNA knockdown was 85%. In turn, “RNA1{r(C)p.r(G)p.[s4r](U)p.r(A)p.r(C)p.r(G)p.r(C)p.r(G)p.r(G)p.r(A)p.r(A)p.[s4r](U)p.r(A)p.r(C)p.[s4r](U)p.[s4r](U)p.r(C)p.r(G)p.r(A)p.r(T)p.r(T)}|RNA2{r(U)p.r(C)p.r(G)p.r(A)p.r(A)p.r(G)p.r(U)p.r(A)p.r(U)p.r(U)p.r(C)p.r(C)p.r(G)p.r(C)p.r(G)p.r(U)p.r(A)p.r(C)p.r(G)p.r(T)p.r(T)}$$$RNA1{StrandType:ss}|RNA2{StrandType:as}$” gave a target mRNA knockdown of 96.3%. Substance “RNA1{r(C)p.r(G)p.m(C)p.r(C)p.r(C)p.m(C)p.r(C)p.r(C)p.r(U)p.m(C)p.r(A)p.r(A)p.r(G)p.r(C)p.m(U)p.r(A)p.r(C)p.r(C)p.r(G)p.r(T)p.r(T)}|RNA2{r(C)p.r(G)p.r(G)p.m(U)p.r(A)p.r(G)p.r(C)p.r(U)p.m(U)p.r(G)p.r(A)p.r(G)p.r(G)p.r(G)p.r(G)p.r(G)p.r(G)p.r(C)p.r(G)p.r(T)p.r(T)}$$$RNA1{StrandType:ss}|RNA2{StrandType:as}$” returned a target mRNA knockdown of 72%.

For “RNA1{r(C)p.r(G)p.r(A)p.r(A)p.r(A)p.r(G)p.[fl2r](U)p.r(G)p.[fl2r](U)p.r(A)p.r(U)p.r(C)p.r(C)p.r(G)p.r(A)p.r(A)p.r(G)p.r(A)p.r(C)p.r(T)p.r(T)}|RNA2{r(G)p.r(U)p.r(C)p.r(U)p.r(U)p.r(C)p.r(G)p.r(G)p.r(A)p.[fl2r](U)p.r(A)p.[fl2r](C)p.r(A)p.r(C)p.r(U)p.r(U)p.r(U)p.r(C)p.r(G)p.r(T)p.r(T)}$$$RNA1{StrandType:ss}|RNA2{StrandType:as}$”, the target mRNA knockdown is 75%. Regarding “RNA1{r(C)p.r(G)p.r(A)p.r(A)p.r(A)p.r(G)p.r(U)p.r(G)p.r(U)p.r(A)p.r(U)p.r(C)p.r(C)p.r(G)p.r(A)p.r(A)p.r(G)p.r(A)p.r(C)p.r(T)p.r(T)}|RNA2{r(G)p.r(U)p.r(C)p.r(U)p.r(U)p.r(C)p.r(G)p.r(G)p.r(A)p.[fl2r](U)p.r(A)p.r(C)p.r(A)p.r(C)p.r(U)p.r(U)p.r(U)p.r(C)p.r(G)p.r(T)p.r(T)}$$$RNA1{StrandType:ss}|RNA2{StrandType:as}$”, the target mRNA knockdown was 69%. As for “RNA1{r(C)p.r(G)p.r(A)p.r(C)p.[fl2r](G)p.r(A)p.r(U)p.r(U)p.r(C)p.r(U)p.r(U)p.r(C)p.[fl2r](U)p.r(A)p.r(C)p.r(U)p.r(C)p.r(A)p.r(A)p.r(T)p.r(T)}|RNA2{r(U)p.[fl2r](U)p.r(G)p.r(A)p.r(G)p.[fl2r](U)p.r(A)p.r(G)p.r(A)p.r(A)p.r(G)p.r(A)p.r(A)p.r(U)p.r(C)p.r(G)p.r(U)p.r(C)p.r(G)p.r(T)p.r(T)}$$$RNA1{StrandType:ss}|RNA2{StrandType:as}$”, the target mRNA knockdown was found to be 62%.

With “RNA1{r(C)p.r(G)p.r(A)p.r(C)p.r(G)p.r(A)p.r(U)p.r(U)p.r(C)p.r(U)p.r(U)p.r(C)p.[fl2r](U)p.r(A)p.r(C)p.r(U)p.r(C)p.r(A)p.r(A)p.r(T)p.r(T)}|RNA2{r(U)p.r(U)p.r(G)p.r(A)p.r(G)p.[fl2r](U)p.r(A)p.r(G)p.r(A)p.r(A)p.r(G)p.r(A)p.r(A)p.r(U)p.r(C)p.r(G)p.r(U)p.r(C)p.r(G)p.r(T)p.r(T)}$$$RNA1{StrandType:ss}|RNA2{StrandType:as}$”, the target mRNA knockdown stood at 67%.

“RNA1{r(C)p.r(G)p.r(A)p.r(G)p.m(U)p.r(G)p.r(U)p.r(C)p.m(U)p.r(A)p.r(A)p.r(C)p.r(G)p.r(G)p.r(G)p.r(A)p.r(G)p.r(C)p.r(C)p.r(T)p.r(T)}|RNA2{r(G)p.r(G)p.r(C)p.r(U)p.r(C)p.r(C)p.r(C)p.r(G)p.r(U)p.m(U)p.r(A)p.r(G)p.r(A)p.m(C)p.r(A)p.r(C)p.r(U)p.r(C)p.r(G)p.r(T)p.r(T)}$$$RNA1{StrandType:ss}|RNA2{StrandType:as}$”: the target mRNA knockdown was 65%. As to “RNA1{r(C)p.r(G)p.r(A)p.r(G)p.r(U)p.r(G)p.r(U)p.r(C)p.r(U)p.r(A)p.r(A)p.r(C)p.r(G)p.r(G)p.r(G)p.r(A)p.r(G)p.r(C)p.r(C)p.r(T)p.r(T)}|RNA2{r(G)p.r(G)p.r(C)p.r(U)p.r(C)p.r(C)p.r(C)p.r(G)p.r(U)p.m(U)p.r(A)p.r(G)p.r(A)p.r(C)p.r(A)p.r(C)p.r(U)p.r(C)p.r(G)p.r(T)p.r(T)}$$$RNA1{StrandType:ss}|RNA2{StrandType:as}$”, the target mRNA knockdown worked out at 68%. The substance “RNA1{r(C)p.r(G)p.r(C)p.r(C)p.r(C)p.r(C)p.r(C)p.r(C)p.r(U)p.r(C)p.r(A)p.r(A)p.r(G)p.r(C)p.m(U)p.r(A)p.r(C)p.r(C)p.r(G)p.r(T)p.r(T)}|RNA2{r(C)p.r(G)p.r(G)p.m(U)p.r(A)p.r(G)p.r(C)p.r(U)p.r(U)p.r(G)p.r(A)p.r(G)p.r(G)p.r(G)p.r(G)p.r(G)p.r(G)p.r(C)p.r(G)p.r(T)p.r(T)}$$$RNA1{StrandType:ss}|RNA2{StrandType:as}$” displayed a target mRNA knockdown of 76%.

As to “RNA1{r(C)p.r(G)p.r(G)p.r(A)p.r(U)p.r(C)p.m(U)p.m(A)p.m(C)p.r(A)p.r(C)p.r(C)p.r(U)p.r(U)p.m(C)p.r(A)p.r(A)p.r(G)p.r(A)p.r(T)p.r(T)}|RNA2{r(U)p.r(C)p.r(U)p.m(U)p.r(G)p.r(A)p.r(A)p.r(G)p.r(G)p.m(U)p.r(G)p.m(U)p.r(A)p.r(G)p.r(A)p.r(U)p.r(C)p.r(C)p.r(G)p.r(T)p.r(T)}$$$RNA1{StrandType:ss}|RNA2{StrandType:as}$”, the target mRNA knockdown came out at 40%.

For the substance “RNA1{r(C)p.r(G)p.r(G)p.r(A)p.r(U)p.r(C)p.m(U)p.r(A)p.m(C)p.r(A)p.r(C)p.r(C)p.r(U)p.r(U)p.m(C)p.r(A)p.r(A)p.r(G)p.r(A)p.r(T)p.r(T)}|RNA2{r(U)p.r(C)p.r(U)p.m(U)p.r(G)p.r(A)p.r(A)p.r(G)p.r(G)p.m(U)p.r(G)p.m(U)p.r(A)p.r(G)p.r(A)p.r(U)p.r(C)p.r(C)p.r(G)p.r(T)p.r(T)}$$$RNA1{StrandType:ss}|RNA2{StrandType:as}$”, the target mRNA knockdown amounted to 68%.
